In patent EP4755886A1 (Chengdu Chipscreen Pharmaceutical Ltd., priority 2023, dated 2025):

How the values were obtained:
[1] = tested on: MTAP^-/- HCT-116 cells; assay: Cell proliferation (MTS), MTAP-/- HCT-116; type: cell-based, human; settings: for Selectivity: HCT116 WT IC50 relative to HCT116 MTAP-/- IC50; for IC50: Homo sapiens, 240 h, MTAP-/- HCT-116, 10 days with compound, MTS reading, read-out: IC50 HCT116 MTAP-/-
Procedure, shortened: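 MTAP-/- (CRISPR/Cas9 biallelic knockout) or wild-type HCT-116 cells seeded at 100 cells/well, treated next day with 8-point 3-fold dilutions (top 20 µM) for 10 days at 37 °C, 5% CO2. Viability read by MTS; IC50 from four-parameter logistic fit of inhibition rate vs log concentration.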

[2] = tested on: wild-type HCT-116 cells; assay: Cell proliferation (MTS), wild-type HCT-116; type: cell-based; settings: Homo sapiens, 240 h; wild-type HCT-116, 10 days with compound, MTS reading; read-out: IC50 HCT116 WT
Procedure, shortened: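 Wild-type HCT-116 cells were seeded at 100 cells/well in McCoy's 5A/10% FBS. From day 1 they were treated with compound in 3-fold dilutions (initial 20 µM, 8 points) for 10 days at 37° C. Proliferation was read by MTS on day 11, and IC50 was obtained from a four-parameter logistic fit.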

With `Cc1cn(C)nc1C#Cc1ccc2c(c1)OCC2N(C)C(=O)c1cc2c(cc1F)nc(N)c1cnn(C)c12` (stereo not drawn) [Compound 37, 4-amino-N-(6-((1,4-dimethyl-1H-pyrazol-3-yl)ethynyl)-2,3-dihydrobenzofuran-3-yl)-7-fluoro-N,1-dimethyl-1H-pyrazolo[4,3-c]quinoline-8-carboxamide] the Selectivity [1] was 93, the IC50 [1] was 22 nM and the IC50 [2] was 2040 nM.
For `CN(C(=O)c1cc2c(cc1F)nc(N)c1cnn(C)c12)C1COc2cc(C#Cc3cnn(C(F)F)c3)ccc21` (stereo not drawn) [Compound 41, 4-amino-N-(6-((1-(difluoromethyl)-1H-pyrazol-4-yl)ethynyl)-2,3-dihydrobenzofuran-3-yl)-7-fluoro-N,1-dimethyl-1H-pyrazolo[4,3-c]quinoline-8-carboxamide], the Selectivity [1] was 129, the IC50 [1] was 13.8 nM and the IC50 [2] was 1780 nM.
In the case of `Cn1cc(C#Cc2ccc3c(c2)OCC3N(C(=O)c2ccc3nc(N)c4cnn(C)c4c3c2)C2CC2)cn1` (stereo not drawn) [Compound 2, 4-amino-N-cyclopropyl-1-methyl-N-{6-[(1-methylpyrazol-4-yl)ethynyl]-2,3-dihydro-1-benzofuran-3-yl}pyrazolo[4,3-c]quinoline-8-carboxamide], the Selectivity [1] is reported as 74, the IC50 [1] is reported as 13.9 nM and the IC50 [2] is reported as 1030 nM.
`Cc1ccncc1C#Cc1ccc2c(c1)OC[C@H]2N(C)C(=O)c1cc2c(cc1Cl)nc(N)c1cnn(C)c12` [Compound 63A, (S)-4-amino-7-chloro-N,1-dimethyl-N-(6-((4-methylpyridin-3-yl)ethynyl)-2,3-dihydrobenzofuran-3-yl)-1H-pyrazolo[4,3-c]quinoline-8-carboxamide] gave a Selectivity [1] of 43, an IC50 [1] of 2 nM and an IC50 [2] of 85 nM.
For `Cc1c(C#Cc2ccc3c(c2)OC[C@H]3N(C)C(=O)c2cc3c(cc2Cl)nc(N)c2cnn(C)c23)cnn1C` [Compound 22A, (S)-4-amino-7-chloro-N-(6-((1,5-dimethyl-1H-pyrazol-4-yl)ethynyl)-2,3-dihydrobenzofuran-3-yl)-N,1-dimethyl-1H-pyrazolo[4,3-c]quinoline-8-carboxamide], the Selectivity [1] was 55, the IC50 [1] was 1 nM and the IC50 [2] was 55 nM.
Molecule `CN(C(=O)c1cc2c(cc1Cl)nc(N)c1cnn(C)c12)C1COc2cc(C#Cc3cnn(C)c3)ccc21` (stereo not drawn) [Compound 9, 4-amino-7-chloro-N,1-dimethyl-N-(6-((1-methyl-1H-pyrazol-4-yl)ethynyl)-2,3-dihydrobenzofuran-3-yl)-1H-pyrazolo[4,3-c]quinoline-8-carboxamide] has a Selectivity [1] of 109, an IC50 [1] of 0.9 nM and an IC50 [2] of 97.7 nM.
Molecule `CN1CCn2c(C#Cc3ccc4c(c3)OCC4N(C)C(=O)c3cc4c(cc3F)nc(N)c3cnn(C)c34)cnc2C1` (stereo not drawn) [Compound 46, 4-amino-7-fluoro-N,1-dimethyl-N-(6-((7-methyl-5,6,7,8-tetrahydroimidazo[1,2-a]pyrazin-3-yl)ethynyl)-2,3-dihydrobenzofuran-3-yl)-1H-pyrazolo[4,3-c]quinoline-8-carboxamide] has a Selectivity [1] of 156, an IC50 [1] of 3 nM and an IC50 [2] of 467 nM.
`Cc1c(C#Cc2ccc3c(c2)OCC3N(C)C(=O)c2cc3c(cc2Cl)nc(N)c2cnn(C)c23)cnn1C` (stereo not drawn) [Compound 22, 4-amino-7-chloro-N-(6-((1,5-dimethyl-1H-pyrazol-4-yl)ethynyl)-2,3-dihydrobenzofuran-3-yl)-N,1-dimethyl-1H-pyrazolo[4,3-c]quinoline-8-carboxamide] gave a Selectivity [1] of 50, an IC50 [1] of 1.9 nM and an IC50 [2] of 95 nM.
In the case of `CN(C(=O)c1cc2c(cc1Cl)nc(N)c1cnn(C)c12)C1COc2cc(C#Cc3ccn(C)n3)ccc21` (stereo not drawn) [Compound 18, 4-amino-7-chloro-N,1-dimethyl-N-(6-((1-methyl-1H-pyrazol-3-yl)ethynyl)-2,3-dihydrobenzofuran-3-yl)-1H-pyrazolo[4,3-c]quinoline-8-carboxamide], the Selectivity [1] is reported as 53, the IC50 [1] is reported as 3 nM and the IC50 [2] is reported as 159 nM.
`CN(C(=O)c1cc2c(cc1F)nc(N)c1cnn(C)c12)[C@@H]1COc2cc(C#Cc3cnn(C4CCC4)c3)ccc21` [Compound 89A, (S)-4-amino-N-(6-((1-cyclobutyl-1H-pyrazol-4-yl)ethynyl)-2,3-dihydrobenzofuran-3-yl)-7-fluoro-N,1-dimethyl-1H-pyrazolo [4,3-c] quinoline-8-carboxamide] gave a Selectivity [1] of 88, an IC50 [1] of 3 nM and an IC50 [2] of 263 nM.
For `CCn1cc(C#Cc2ccc3c(c2)OC[C@H]3N(C)C(=O)c2ccc3nc(N)c4cnn(C)c4c3c2)cn1` [Compound 20A, (S)-4-amino-N-(6-((1-ethyl-1H-pyrazol-4-yl)ethynyl)-2,3-dihydrobenzofuran-3-yl)-N,1-dimethyl-1H-pyrazolo[4,3-c]quinoline-8-carboxamide], the Selectivity [1] was 170, the IC50 [1] was 6.1 nM and the IC50 [2] was 1040 nM.
In the case of `CN(C(=O)c1cc2c(cc1F)nc(N)c1cnn(C)c12)C1COc2cc(C#Cc3cn(C)nc3Cl)ccc21` (stereo not drawn) [Compound 24, 4-amino-N-(6-((3-chloro-1-methyl-1H-pyrazol-4-yl)ethynyl)-2,3-dihydrobenzofuran-3-yl)-7-fluoro-N,1-dimethyl-1H-pyrazolo[4,3-c]quinoline-8-carboxamide], the Selectivity [1] is reported as 61, the IC50 [1] is reported as 1.9 nM and the IC50 [2] is reported as 115 nM.
`CN(C(=O)c1cc2c3c(c(N)nc2cc1Cl)COC3)[C@@H]1COc2cc(C#Cc3ccc4cnn(C)c4c3)ccc21` [Compound 62A, (S)-4-amino-7-chloro-N-methyl-N-(6-((1-methyl-1H-indazol-6-yl)ethynyl)-2,3-dihydrobenzofuran-3-yl)-1,3-dihydrofuro[3,4-c]quinoline-8-carboxamide] was tested, and the Selectivity [1] was 79, the IC50 [1] was 15.9 nM and the IC50 [2] was 1260 nM.
Work on `CN(C(=O)c1cc2c(cc1Cl)nc(N)c1cnn(C)c12)[C@@H]1COc2cc(C#Cc3cccnc3F)ccc21` [Compound 56A, (S)-4-amino-7-chloro-N-(6-((2-fluoropyridin-3-yl)ethynyl)-2,3-dihydrobenzofuran-3-yl)-N,1-dimethyl-1H-pyrazolo[4,3-c]quinoline-8-carboxamide] yielded a Selectivity [1] of 53, an IC50 [1] of 3 nM and an IC50 [2] of 160 nM.
Molecule `Cc1ccncc1C#Cc1ccc2c(c1)OCC2N(C)C(=O)c1cc2c(cc1F)nc(N)c1cnn(C)c12` (stereo not drawn) [Compound 44, 4-amino-7-fluoro-N,1-dimethyl-N-(6-((4-methylpyridin-3-yl)ethynyl)-2,3-dihydrobenzofuran-3-yl)-1H-pyrazolo[4,3-c]quinoline-8-carboxamide] has a Selectivity [1] of 67, an IC50 [1] of 11 nM and an IC50 [2] of 736 nM.
`Cc1c(C#Cc2ccc3c(c2)OC[C@H]3N(C)C(=O)c2ccc3nc(N)c4cnn(C)c4c3c2)cnn1C` [Compound 29A, (S)-4-amino-N-(6-((1,5-dimethyl-1H-pyrazol-4-yl)ethynyl)-2,3-dihydrobenzofuran-3-yl)-N,1-dimethyl-1H-pyrazolo[4,3-c]quinoline-8-carboxamide] was tested, and the Selectivity [1] was 133, the IC50 [1] was 3.6 nM and the IC50 [2] was 480 nM.
`CN(C(=O)c1ccc2nc(N)c3cnn(C)c3c2c1)C1COc2cc(C#Cc3cn(C)nc3C(F)(F)F)ccc21` (stereo not drawn) [Compound 31, 4-amino-N,1-dimethyl-N-(6-((1-methyl-3-(trifluoromethyl)-1H-pyrazol-4-yl)ethynyl)-2,3-dihydrobenzofuran-3-yl)-1H-pyrazolo[4,3-c]quinoline-8-carboxamide] showed a Selectivity [1] of 102, an IC50 [1] of 14.2 nM and an IC50 [2] of 1460 nM.
For `CN1CC=C(C#Cc2ccc3c(c2)OCC3N(C)C(=O)c2ccc3nc(N)c4cnn(C)c4c3c2)CC1` (stereo not drawn) [Compound 6, 4-amino-N,1-dimethyl-N-(6-((1-methyl-1,2,3,6-tetrahydropyridin-4-yl)ethynyl)-2,3-dihydrobenzofuran-3-yl)-1H-pyrazolo[4,3-c]quinoline-8-carboxamide], the Selectivity [1] was 257, the IC50 [1] was 10.8 nM and the IC50 [2] was 2780 nM.
`Cc1cc2nc(N)c3cnn(C)c3c2cc1C(=O)N(C)[C@@H]1COc2cc(C#Cc3cnn(C)c3)ccc21` [Compound 10A, (S)-4-amino-N,1,7-trimethyl-N-(6-((1-methyl-1H-pyrazol-4-yl)ethynyl)-2,3-dihydrobenzofuran-3-yl)-1H-pyrazolo[4,3-c]quinoline-8-carboxamide] was tested, and the Selectivity [1] was 56, the IC50 [1] was 0.5 nM and the IC50 [2] was 28 nM.
Molecule `CN(C(=O)c1cc2c(cc1Cl)nc(N)c1cnn(C)c12)[C@@H]1COc2cc(C#Cc3ccnn3C)ccc21` [Compound 53A, (S)-4-amino-7-chloro-N,1-dimethyl-N-(6-((1-methyl-1H-pyrazol-5-yl)ethynyl)-2,3-dihydrobenzofuran-3-yl)-1H-pyrazolo[4,3-c]quinoline-8-carboxamide] has a Selectivity [1] of 45, an IC50 [1] of 1 nM and an IC50 [2] of 45 nM.
Molecule `Cc1cc2nc(N)c3cnn(C)c3c2cc1C(=O)N(C)C1COc2cc(C#Cc3cnn(C)c3)ccc21` (stereo not drawn) [Compound 10, 4-amino-N,1,7-trimethyl-N-(6-((1-methyl-1H-pyrazol-4-yl)ethynyl)-2,3-dihydrobenzofuran-3-yl)-1H-pyrazolo[4,3-c]quinoline-8-carboxamide] has a Selectivity [1] of 81, an IC50 [1] of 2 nM and an IC50 [2] of 162 nM.
For `CN(C(=O)c1cc2c3c(c(N)nc2cc1Cl)COC3)[C@@H]1COc2cc(C#Cc3cn(C)nc3Cl)ccc21` [Compound 68A, (S)-4-amino-7-chloro-N-(6-((3-chloro-1-methyl-1H-pyrazol-4-yl)ethynyl)-2,3-dihydrobenzofuran-3-yl)-N-methyl-1,3-dihydrofuro[3,4-c]quinoline-8-carboxamide], the Selectivity [1] was 47, the IC50 [1] was 6.6 nM and the IC50 [2] was 312 nM.
